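Grown in 96-well plates, cells were treated for 48 hours with each compound at five concentrations. Insufficient inhibition: endpoint recorded as highest concentration tested. The concentration for 50% growth inhibition is given as GI50.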 The source made the active and inactive calls. Cut-off read from the data, not from the text of the source: active = GI50 up to about 1.1 µM and inactive = higher.
What was measured:
Test in all cases: growth of human tumour cells (NCI), 48 h
ACHN = system: ACHN
DLD-1 = system: DLD-1
HOP-62 = system: HOP-62
HOP-92 = system: HOP-92
KM12 = system: KM12
LXFL 529 = system: LXFL 529
NCI-H226 = system: NCI-H226
NCI-H522 = system: NCI-H522
OVCAR-5 = system: OVCAR-5
RXF 393 = system: RXF 393
SF-539 = system: SF-539
SK-MEL-2 = system: SK-MEL-2
SK-MEL-5 = system: SK-MEL-5
SW-620 = system: SW-620
UO-31 = system: UO-31

Row | Compound | GI50 (ACHN) | GI50 (DLD-1) | GI50 (HOP-62) | GI50 (HOP-92) | GI50 (KM12) | GI50 (LXFL 529) | GI50 (NCI-H226) | GI50 (NCI-H522) | GI50 (OVCAR-5) | GI50 (RXF 393) | GI50 (SF-539) | GI50 (SK-MEL-2) | GI50 (SK-MEL-5) | GI50 (SW-620) | GI50 (UO-31)
1 | COc1cc2c(c(OC)c1OC)-c1ccc(OC)c(=O)cc1[C@@H](N(C)C=O)CC2 | 0.0802 µM (active) | 0.0198 µM (active) | < 0.0164 µM (active) | 0.0137 µM (active) | < 0.01 µM (active) | < 0.0184 µM (active) | 0.162 µM (active) | 0.015 µM (active) | > 8.51 µM (inactive) | 0.0161 µM (active) | 0.0148 µM (active) | 0.0135 µM (active) | < 0.01 µM (active) | 0.0134 µM (active) | 0.752 µM (active)
2 | C=C1CCCC2OC(OC)CCC12 (stereo not given) | > 100 µM (inactive) | > 100 µM (inactive) | > 100 µM (inactive) | > 100 µM (inactive) | > 100 µM (inactive) | > 100 µM (inactive) | > 100 µM (inactive) | > 100 µM (inactive) | > 100 µM (inactive) | > 100 µM (inactive) | > 100 µM (inactive) | > 100 µM (inactive) | > 100 µM (inactive) | > 100 µM (inactive) | > 100 µM (inactive)
3 | COc1cc(OC)c2c(c1)C(=O)C(CC1(C)OCCCO1)=CC2=O | 9.75 µM (inactive) | 4.17 µM (inactive) | 19.1 µM (inactive) | 1.83 µM (inactive) | 14.3 µM (inactive) | 6.12 µM (inactive) | 19.6 µM (inactive) | 3.43 µM (inactive) | 16.9 µM (inactive) | 3.54 µM (inactive) | 12.8 µM (inactive) | 15.2 µM (inactive) | 8.04 µM (inactive) | 7.57 µM (inactive) | 11 µM (inactive)
4 | COc1cc2c(c(OC)c1OC)-c1ccc(SC)c(=O)cc1[C@@H](NC(=O)c1ccc(C#N)cc1)CC2 | < 0.01 µM (active) | < 0.01 µM (active) | < 0.01 µM (active) | < 0.01 µM (active) | < 0.01 µM (active) | < 0.01 µM (active) | < 0.01 µM (active) | < 0.01 µM (active) | < 0.01 µM (active) | < 0.01 µM (active) | < 0.01 µM (active) | < 0.01 µM (active) | < 0.01 µM (active) | < 0.01 µM (active) | < 0.01 µM (active)

Source: ChEMBL document CHEMBL1201862, “PubChem BioAssay data set” (2004)
